Results reported in US11312790B2, “Production method for pentosan polysulfate” (OJI HOLDINGS CORPORATION, priority 2016, dated 2022).

How the values were obtained:
factor Xa = test: Measurement of anti-Xa activity using Test Team Heparin S; type: biochemical; conditions: Test Team Heparin S kit
Excerpt: In general, anticoagulant activity is based on the activity of inhibiting blood coagulation factors. That is, when anticoagulant activity is high, a blood coagulation reaction is inhibited. Blood coagulation factors refer to the action system of a series of molecules in a living body for coagulating blood when bleeding etc. Successive activation of a large number of blood coagulation factors agglutinates fibrin, and stops bleeding in the bleeding area. Representative examples of blood coagulation factors include factor Xa and factor IIa. Blood coagulation can be inhibited by inhibiting the activity of these factors. Here, the factor Xa inhibitory activity (anti-Xa activity) can be measured using Test Team (registered trademark) Heparin S (manufactured by Sekisui Medical Co., Ltd.). Measurement of Anti-Xa Activity The anti-Xa activity of pentosan polysulfate sodium was measured using Test Team (registered trademark) Heparin S (manufactured by Sekisui Medical Co., Ltd.).

factor IIa = molecular target: T1, factor IIa (Homo sapiens, UniProt P00734); test: Measurement of anti-IIa activity using Biophen heparin anti-IIa; type: biochemical; conditions: Biophen heparin anti-IIa kit
T1 construct: purchased Hyphen BioMed Biophen heparin anti-IIa
Excerpt: In general, anticoagulant activity is based on the activity of inhibiting blood coagulation factors. That is, when anticoagulant activity is high, a blood coagulation reaction is inhibited. Blood coagulation factors refer to the action system of a series of molecules in a living body for coagulating blood when bleeding etc. Successive activation of a large number of blood coagulation factors agglutinates fibrin, and stops bleeding in the bleeding area. Representative examples of blood coagulation factors include factor Xa and factor IIa. Blood coagulation can be inhibited by inhibiting the activity of these factors. The factor IIa inhibitory activity (anti-IIa activity) can be measured using Biophen heparin anti-IIa (manufactured by Hyphen BioMed). Measurement of Anti-IIa Activity The anti-IIa activity of pentosan polysulfate sodium was measured using Biophen heparin anti-IIa (manufactured by Hyphen BioMed).

Anti-IIa activity (factor IIa) | Substance | Anti-Xa activity (factor Xa)
0.0221 IU/mg | pentosan polysulfate sodium [Comparative Example 1, reference compound] | 0.0840 IU/mg
0.0976 IU/mg | pentosan polysulfate sodium [Example 5] | 0.2297 IU/mg
0.1845 IU/mg | pentosan polysulfate sodium [Example 2] | 0.2588 IU/mg
0.0676 IU/mg | pentosan polysulfate sodium [Example 3] | 0.2439 IU/mg
0.0934 IU/mg | pentosan polysulfate sodium [Example 4] | 0.2419 IU/mg

Substance | Anti-IIa activity (factor IIa) | Anti-Xa activity (factor Xa)
pentosan polysulfate sodium [Example 1] | 0.1405 IU/mg | 0.2047 IU/mg
